Measured values: patent publication EP3681856B1, “COMPOUNDS HAVING PRESERVATIVE, ANTIMICROBIAL AND ANTISEPTIC ACTIVITY” (Universita' degli Studi di Milano, priority 2017, dated 2019)

Assays:
Format in all cases: cell-based
[1] = tested on: Escherichia coli ATCC25922; experiment: disc diffusion antimicrobial susceptibility test (EUCAST); details: MHA, 1000 to 125 µg/mL, 37°C, 16-20 h, compared with domiphen bromide
Procedure: The antimicrobial susceptibility tests were effected by the disc diffusion method as indicated by EUCAST (European Committee on Antimicrobial Susceptibility Testing). The plates were prepared with Mueller Hinton Agar (MHA) medium into which microbial suspensions of Escherichia coli ATCC25922 and Staphylococcus aureus ATCC25923 were inoculated at a concentration of about 2×10^8 CFU/mL. Sterile discs were then placed on each plate and subsequently inoculated with successive concentrations of the two chemical compounds analysed (domiphen bromide and para-bromo domiphen bromide), together with a positive control (chloramphenicol) and a negative control (MH broth). The plates were then incubated at 37°C in aerobiosis for 16-20 h. After incubation, any inhibition zone due to the potential antimicrobial activity was measured with a ruler, and the activities of the two molecules were compared. In Figure 6 and Figure 7: • TQ= concentration of compound amounting to 1000 µg/mL 1:2= concentration of compound amounting to 500 µg/mL • 1:4= concentration of compound amounting to 250 µg/mL • 1:8= concentration of compound amounting to 125 µg/mL • CHL= chloramphenicol (antibiotic) • CNEG= negative control (MHB).

[2] = tested on: Staphylococcus aureus ATCC25923; experiment: as above; details: MHA, 1000 to 125 µg/mL, 37°C, 16-20 h
Procedure: The antimicrobial susceptibility tests were effected by the disc diffusion method as indicated by EUCAST (European Committee on Antimicrobial Susceptibility Testing). The plates were prepared with Mueller Hinton Agar (MHA) medium into which microbial suspensions of Escherichia coli ATCC25922 and Staphylococcus aureus ATCC25923 were inoculated at a concentration of about 2×10^8 CFU/mL. Sterile discs were then placed on each plate and subsequently inoculated with successive concentrations of the two chemical compounds analysed (domiphen bromide and para-bromo domiphen bromide), together with a positive control (chloramphenicol) and a negative control (MH broth). The plates were then incubated at 37°C in aerobiosis for 16-20 h. After incubation, any inhibition zone due to the potential antimicrobial activity was measured with a ruler, and the activities of the two molecules were compared. In Figure 8 and Figure 9: • TQ= concentration of compound amounting to 1000 µg/mL • 1:2= concentration of compound amounting to 500 µg/mL • 1:4= concentration of compound amounting to 250 µg/mL • 1:8= concentration of compound amounting to 125 µg/mL • CHL= chloramphenicol (antibiotic) • CNEG= negative control (MHB).

Bacillus cereus DSM31 = experiment: MIC evaluation, broth microdilution method (CLSI); details: summary statement in words
Source text: (§1) Tests were then effected on the two bacteria analysed with the agar diffusion test and on two other microorganisms such as Pseudomonas aeruginosa DSM 22644 (PAO1) and Bacillus cereus DSM31 to evaluate the Minimum Inhibitory Concentration (MIC), i.e. the lowest concentration of compound able to inhibit the growth of a microorganism. The method used was the broth microdilution method (CLSI - Clinical and Laboratory Standards Institute). Briefly, the procedure involved the preparation of serial dilutions of the antimicrobial agent (256 to 0.125 mg/1) distributed in a 96-well microtiter plate (microdilution). Each well was then inoculated with the reference microbial strain at the concentration of about […] (0.5 McFarlands). The 96-well microtiter plates were then incubated at 37°C.

E. coli = experiment: MIC evaluation, broth microdilution method (CLSI); details: Escherichia coli, 37°C
Source text: as §1

[3] = tested on: Pseudomonas aeruginosa DSM 22644 (PAO1); experiment: MIC evaluation, broth microdilution method (CLSI); details: summary statement in words
Source text: as §1

S. aureus = experiment: MIC evaluation, broth microdilution method (CLSI); details: Staphylococcus aureus, 37°C
Source text: as §1

[4] = tested on: Candida humilis UMY12 (UNIMI collection); experiment: disc diffusion test on yeast; details: MHA with 2% glucose, 5120 µg/mL, preliminary tests
Procedure: Some preliminary tests were also effected to evaluate the activity against eukaryotic microorganisms such as yeasts.
The disc diffusion method was applied again, using the yeast Candida humilis UMY12 (UNIMI collection).
2% glucose was added to the MHA medium, and the concentration of the suspension amounted to about 3×10^6 CFU/mL. The concentration of the chemical compounds amounted to 5120 µg/mL for both compounds.

Row | SMILES | antimicrobial activity (inhibition zone) towards E. coli [1] | antimicrobial activity (inhibition zone) towards S. aureus [2] | activity compared with domiphen against Bacillus cereus (Bacillus cereus DSM31) | MIC (E. coli) [µg/mL] | activity compared with domiphen against Pseudomonas aeruginosa [3] | MIC (S. aureus) [µg/mL] | antimicrobial activity against yeast [4]
1 | CCCCCCCCCCCC[N+](C)(C)CCOc1ccc(Br)cc1 [compound of formula (Ia), (dodecyldimethyl-2-p-bromophenoxyethyl)ammonium bromide] | comparable with that of domiphen bromide | exhibits antimicrobial activity | more active than domiphen | 8 | more active than domiphen | 1 | almost the same antimicrobial activity
2 | CCCCCCCCCCCC[N+](C)(C)CCOc1ccccc1 [domiphen bromide, Domiphen bromide, reference compound] | – | – | – | 8 | – | 1 | almost the same antimicrobial activity
